The record followed here is patent US5986136A, “Photolabeling reagent” (President and Fellows of Harvard College, priority 1998, dated 1999).

Data set [1] has as its target T1, SPR in P388D1 cells (Mus musculus, UniProt P30548).
T1 construct: a nontransfected murine macrophage/monocyte cell line; endogenous in cells; host or cells: P388D1 (murine macrophage/monocyte cell line)
Put plainly: Photoaffinity labeling of SPR in P388D1 cells. The note with it: presence of excess unlabeled SP or CP-96,345. The data set is classed as binding, murine.
Experimental: P388D1 cells (5×10^6 cells/5 ml) were inoculated on FBS-pretreated dishes (60 mm) in DMEM with 10% FBS and grown overnight. The cultured cells (approximately 1×10^7) were incubated with protease inhibitors and 0.1% BSA for 30 min at room temperature (25° C.). The cells were then washed twice (5 ml) with ice-cold buffer (DMEM+20 mM HEPES, pH 6.7) and incubated with 5 ml of buffer on ice for at least 10 min, in the presence of protease inhibitors, and 0.1% BSA. […] The dishes were then frozen by placement on crushed dry ice. The frozen sample was irradiated under nitrogen for 2 h using a focused HBO 100-watt mercury short arc lamp through an optical filter to eliminate light below 310 nm. A second filter removed infrared wavelengths (>900 nm) to minimize sample heating during photolysis (Li et al., 1995a). Alternatively, the sample can be irradiated in a commerical photoreactor at 3500 Å.
After photolysis, the sample was thawed and any remaining attached cells were scraped from the bottom of the plate. The sample was transferred to microfuge tubes and centrifuged at 16,000 g for 30 min. The pelleted cells were hypotonically lysed by resuspending in 0.3 ml of 5 mM Tris-HCl, pH 8.0, for 15 min at room temperature. Then the samples were homogenized and centrifuged at 500 g for 15 min to remove debris. […]

Data set [2] concerns the target anti-substance P antibody. Put plainly: Radioimmunoassay: displacement of [^125 I]BHSP from anti-substance P antibody. The data set is classed as binding. The following applies: for IC50: antibody dilution 1/160,000, [^125 I]BHSP 3.3 pM, 4° C. overnight, mean±standard deviation of ≥3 experiments.
The target of data set [3] is T1, SPR in P388D1 cells. The data set is classed as binding, murine. The protocol: Percentage of tracer bound was determined by solubilization and counting after washing away excess unbound tracer. […] The data shown is the average of four experiments containing triplicate samples in each. IC50 is expressed as the mean±standard deviation of ≥4 experiments.
Protease inhibitors (0.004% bacitracin, 0.0002% chymostatin, 0.0004% leupeptin) and 0.1% BSA was added to the confluent cells (approximately 1×10^6 cells/well in DMEM and 10% FBS) and incubated for 30 min at room temperature (25° C.). The cells were then washed twice (0.5 ml/well) with ice-cold buffer (DMEM+20 mM HEPES, pH 7.2) and incubated with 0.5 ml of buffer on ice for at least 10 min in the presence of protease inhibitors and 0.1% BSA. […] After incubation, the cells were washed twice with 0.5 ml/well phosphate-buffered saline (104 mM NaCl, 2.7 mM KCl, 10 mM Na2 HPO4, 1.8 mM KH2 PO4, pH 7.2), then solubilized by 0.5 ml lysis buffer (1% Nonidet P-40, 0.2% SDS, 150 mM NaCl, 50 mM Tris, pH 8.0) for 20 min and transferred for gamma counting. […] Curve fitting was performed as described above.

Data set [4] in a line: Retention of radioiodine during photolysis (model benzophenone). The data set is classed as physicochemical. The note with it: receptor photolabeling conditions, twice the photolysis time.

Entries after “also recorded” stand apart in the source; their conditions may differ.

A word on the IC50: it is the midpoint of a concentration-inhibition curve.

T1 sequence (P30548 whole entry, one chain of several): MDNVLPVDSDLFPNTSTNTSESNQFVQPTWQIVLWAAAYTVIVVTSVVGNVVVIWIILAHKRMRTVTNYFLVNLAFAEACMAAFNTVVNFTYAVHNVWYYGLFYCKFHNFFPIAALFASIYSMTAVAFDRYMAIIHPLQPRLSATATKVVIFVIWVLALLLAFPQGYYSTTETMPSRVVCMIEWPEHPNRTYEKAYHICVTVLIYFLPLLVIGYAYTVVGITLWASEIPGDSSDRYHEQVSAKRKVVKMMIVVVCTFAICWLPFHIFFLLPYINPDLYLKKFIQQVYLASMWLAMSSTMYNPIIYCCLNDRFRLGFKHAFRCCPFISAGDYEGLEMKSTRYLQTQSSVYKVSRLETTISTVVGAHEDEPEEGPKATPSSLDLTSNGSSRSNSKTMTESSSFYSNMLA

Consider `COc1ccccc1CN[C@H]1C2CCN(CC2)[C@H]1C(c1ccccc1)c1ccccc1` [CP-96,345, (2S, 3S)-cis-2-(diphenylmethyl)-N-[(2-methoxyphenyl)-methyl]-1-aza-bicyclo[2.2.2]octan-3-amine], for which the “inhibition of photolabeling by [^125 I]HBPA^8 -SP” value on SPR in P388D1 cells [1] was “completely inhibited”.
Take `CSCC[C@H](NC(=O)[C@H](CC(C)C)NC(=O)CNC(=O)[C@@H](Cc1ccc(C(=O)c2ccc(O)cc2)cc1)NC(=O)[C@H](Cc1ccccc1)NC(=O)[C@H](CCC(N)=O)NC(=O)[C@H](CCC(N)=O)NC(=O)[C@@H]1CCCN1C(=O)[C@H](CCCCN)NC(=O)[C@@H]1CCCN1C(=O)[C@@H](N)CCCNC(=N)N)C(N)=O` [D-HBPA^8 -SP]: the IC50 in data set [2] turned out to be 0.39 ± 0.04 nM; on SPR in P388D1 cells [3] (tracer 25 pM [^125 I]BHSP, 2 h on ice, mean±standard deviation of ≥4 experiments, read-out: IC50 for displacement of [^125 I]BHSP), 1.5 ± 0.34 nM.
The compound `CSCC[C@H](NC(=O)[C@H](CC(C)C)NC(=O)CNC(=O)[C@H](Cc1ccc(C(=O)c2ccc(O)cc2)cc1)NC(=O)[C@H](Cc1ccccc1)NC(=O)[C@H](CCC(N)=O)NC(=O)[C@H](CCC(N)=O)NC(=O)[C@@H]1CCCN1C(=O)[C@H](CCCCN)NC(=O)[C@@H]1CCCN1C(=O)[C@@H](N)CCCNC(=N)N)C(N)=O` [L-HBPA^8 -SP, ArgProLysProGlnGlnPhe(L-HBPA)GlyLeuMet-NH2] returned a concentration for half-maximal inhibition (IC50) in data set [2] of 0.052 ± 0.008 nM. In data set [2] (compared with native SP or other diastereomer), the “affinity for anti-SP antiserum (in words)” value is reported as “binds to the antibody with a higher affinity”. The “activity with both a SP specific antibody and SPR, antibody part (in words)” value in data set [2] (first HPLC peak versus second) is “more active than the second”. The “activity with both a SP specific antibody and SPR, receptor part (in words)” value at SPR in P388D1 cells [3] (first HPLC peak versus second) is listed as “more active than the second”. Further, the “affinity / specificity for SPR (in words)” value on SPR in P388D1 cells [3] (murine SP receptor, P388D1 cells) is “bind with high affinity and specificity to SPR; also recorded: a specific as well as a high affinity ligand for the receptor”.
In turn, `CSCC[C@H](NC(=O)[C@H](CC(C)C)NC(=O)CNC(=O)[C@H](Cc1ccccc1)NC(=O)[C@H](Cc1ccccc1)NC(=O)[C@H](CCC(N)=O)NC(=O)[C@H](CCC(N)=O)NC(=O)[C@@H]1CCCN1C(=O)[C@H](CCCCN)NC(=O)[C@@H]1CCCN1C(=O)[C@@H](N)CCCNC(=N)N)C(N)=O` [SP, reference compound] had a 50% inhibitory concentration (IC50) in data set [2] of 0.071 ± 0.006 nM.
For the compound `O=C(c1ccccc1)c1ccc(O)c([125I])c1` [[^125 I]-3-iodo-4-hydroxybenzophenone], in data set [4], the “radioiodine remaining incorporated in the starting material after photolysis” value is given as “greater than 98%”.
